As a reminder, the EC50 is the midpoint of the concentration-response curve. For orientation: LD50 means the dose at which mortality reaches 50%. A word on the IC50: it is the concentration that inhibits the measured activity by half.

The results in this text go back to patent publication US5405857A, “3-substituted 1,2,3,4,-oxatriazole-5-imine compounds, a process for the preparation thereof and a pharmaceutical preparation containing said compounds” (A/S GEA Farmaceutisk Fabrik, priority 1991, dated 1995).

One data set deals with pre-contracted trachea. As to the kind of experiment: Relaxation of pre-contracted isolated trachea. The note with it: Cavia porcellus; carbamylcholine 0.3 μM, Krebs buffer, 37° C. More on the design: species or system guinea pig. How it is done:
Compounds according to the invention were tested for their ability to relax a pre-contracted trachea. A contraction of the respiratory passages in combination with a swelling of the mucuos membrane therein presents a vital factor at asthmatic conditions. Relaxation or dilation of the contracted respiratory passages will improve the asthmatic condition.
An isolated trachea from a guinea pig is used. After preparation of a strip which has maintained the circular musculature, the organ is divided into two parts of equal size. The two tracheal strips are suspended in their respective organ bath and connected to a transducer recording the contraction and relaxation of the organ by means of a recorder. The two tracheal strips are continuously bathed in a Krebs buffer at 37° C., constantly bubbled with carbogen (95% O2 and 5% CO2). After an equilibration time of about 3 hours the organs are tested for their sensitivity (contractility) to carbamylcholin a bolus being added directly to the bath (0.3 μM). If the contraction is satisfactory, the organs are transferred to the Krebs buffer containing the same concentration of carbamylcholine. The organs are now constantly exposed to the carbamylcholine and slowly develop a permanent contraction ("asthma"). The test substances are in bolus form added directly to the organ bath. After maximum effect (relaxation) the substances are removed by washing out and the tracheal strip reverts to its permanent contraction state. […] An EC50 -value (that is the concentration relaxing the organ by 50% relative to the maximum relaxation) is calculated for each test substance by means of a linear regression analysis (log concentration (μM) as a constant ad abscissa and % relaxation as variable ad ordinate). Sodium nitroprusside (NNP) and SIN-1 are used as reference substances.

Data set [1] has as its target T1, soluble guanylate cyclase (Homo sapiens, UniProt Q02153).
T1 construct: The guanylate cyclase activity in the supernatant after incubation with and without the test substance; endogenous in cells; host or cells: human blood platelets, supernatant of homogenate
T1 sequence (Q02153 1-619): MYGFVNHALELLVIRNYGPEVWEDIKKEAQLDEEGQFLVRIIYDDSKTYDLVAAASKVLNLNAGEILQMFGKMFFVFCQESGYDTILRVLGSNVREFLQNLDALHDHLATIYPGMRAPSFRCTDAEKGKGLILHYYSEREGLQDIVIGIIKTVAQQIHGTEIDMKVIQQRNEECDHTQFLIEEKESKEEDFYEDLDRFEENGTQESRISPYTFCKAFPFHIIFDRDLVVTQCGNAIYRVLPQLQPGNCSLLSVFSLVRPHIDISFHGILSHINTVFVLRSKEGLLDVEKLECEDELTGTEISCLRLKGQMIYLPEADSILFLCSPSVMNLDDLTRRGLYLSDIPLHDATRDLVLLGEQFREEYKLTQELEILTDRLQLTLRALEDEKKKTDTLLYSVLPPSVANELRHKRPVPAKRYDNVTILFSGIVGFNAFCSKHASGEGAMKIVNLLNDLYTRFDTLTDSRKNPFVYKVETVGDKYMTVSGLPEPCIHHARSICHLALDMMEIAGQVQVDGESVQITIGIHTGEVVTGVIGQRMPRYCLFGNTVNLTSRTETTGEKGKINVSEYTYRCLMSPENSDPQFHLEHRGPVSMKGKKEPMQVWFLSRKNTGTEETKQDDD
T1 sequence (Q02108 1-690 partner): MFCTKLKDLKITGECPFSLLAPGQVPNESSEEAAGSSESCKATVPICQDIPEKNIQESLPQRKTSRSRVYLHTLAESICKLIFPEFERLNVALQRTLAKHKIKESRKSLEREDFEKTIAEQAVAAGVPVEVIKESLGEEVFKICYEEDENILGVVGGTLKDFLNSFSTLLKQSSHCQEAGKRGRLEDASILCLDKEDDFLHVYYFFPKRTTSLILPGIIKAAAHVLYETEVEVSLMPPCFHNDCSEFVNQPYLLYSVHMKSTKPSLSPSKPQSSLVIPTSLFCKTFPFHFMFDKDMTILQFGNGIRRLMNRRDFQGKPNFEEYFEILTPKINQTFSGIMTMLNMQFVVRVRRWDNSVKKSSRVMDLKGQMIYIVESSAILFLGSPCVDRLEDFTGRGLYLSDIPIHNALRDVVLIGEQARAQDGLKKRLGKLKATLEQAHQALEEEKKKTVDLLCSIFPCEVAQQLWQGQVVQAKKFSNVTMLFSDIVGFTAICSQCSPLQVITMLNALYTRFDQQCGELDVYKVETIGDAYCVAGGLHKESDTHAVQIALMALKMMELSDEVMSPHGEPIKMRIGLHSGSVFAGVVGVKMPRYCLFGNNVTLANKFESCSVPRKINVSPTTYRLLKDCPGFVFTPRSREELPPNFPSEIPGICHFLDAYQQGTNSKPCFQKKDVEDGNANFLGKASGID
As to the kind of experiment: Stimulation of guanylate cyclase from blood platelets (RIA). The data set is classed as biochemical. Particulars: 37° C.

A further data set can be described thus: LD50 test, intravenous. Particulars: mouse, in vivo, single injection, read-out: LD50 with 95% confidence limits. Further details: species or system mice. On the procedure: (§1) Two tests were carried out on male rats, namely a determination of the "maximum tolerable dose" (MTD) and a test using multiple peroral doses. In addition, a LD50 test was carried out intravenously on mice.
(According to Litchfield and Wileoxon, J. Pharmacol. Exp. Therap. 96, 99-113, 1949).
The intravenous LD50 -value was determined after one single injection of different doses of the compound prepared in Example 4.

A further data set has as its system male rats. The note with it: rat, in vivo, po, 20 mg/kg. How it is done: as §1
At this test the substances were administered perorally in a dose of 20 mg per kg. as solutions or suspensions once a day for 5 days to groups of 5 animals. Clinical observations were made every day and the above hematological parameters were measured on the third day of the test.

A further data set has as its system blood platelets. As to the kind of experiment: Inhibition of blood platelet aggregation (aggregometer, ADP). It is filed as cell-based, human (healthy testees). The note with it: Platelet, 0.05 h; human PRP, ADP 2 to 4 μM, 3 min incubation, 37° C.; read-out: IC50 (Inhibition of blood platelet aggregation). How it is done: Compounds according to the invention were tested for their inhibition of clumping together (aggregation) of blood platelets (thrombocytes), which is the first phase of the formation of blood clots (thrombi). Such an inhibition may prevent the formation of blood clots and inhibit the development of new thrombi after a diagnosed thrombus.
Citrate stabilized ( 0.38% of sodium citrate, final concentration) venous blood from healthy testees is used, who have not used medicine for at least 8 days. Slight centrifugation (160×g for 10 minutes) results in PRP (blood plasma rich in platelets) which is pipetted. PPP (blood plasma poor in platelets) is obtained by an intense centrifugation (3000×g for 10 minutes) of the remaining blood. The light transmission is measured by the aggregometer (CHRONOLOG). PRP allows nearly no light transmitaaion, while PPP allows complete transmission of light. The PRP is placed in the aggregometer at 37° C. while being stirred by a magnet. Addition of a pro-aggregating substance causes the PRP to aggregate gradually and an increasing light transmission takes place at the same time. At complete aggregation a light transmission corresponding to PPP is obtained. Adnosine diphosphate (ADP) is used as pro-aggregating substance, said substance representing a basic biochemical mechanism for aggregation of blood platelets. The test substances are incubated for 3 minutes in PRP placed in the aggregometer at 37° C. during magnetic stirring. A predetermined positively aggregating dosage of adenosine diphosphate (ADP) (2 to 4 μM) is then added. […] A so-called IC50 -value (that is the concentration inhibiting the aggregation by 50% relative to the control aggregation) is calculated for each test substance by linear regression analysis (log concentration μM as constant ad abscissa and % inhibition as variable ad ordinate). The following known reference substances have been used: nitroglycerine (GTN), sodium nitroprusside (NNP) and SIN-1 (the active metabolite of molsidomine).

The next data set deals with PAI-1. The data set is described as follows: Inhibition of plasminogen activator inhibitor (PAI-1) from blood platelets (fibrinolytic activity). The data set is classed as cell-based, human. The note with it: 50 μM, 60 minutes; for % Inhibition of PAI-1 activity: compared to control; for PAI-1 activity: human PRP, control 3.24. On the procedure: Compounds according to the invention were tested for their inhibition of plasminogen activator inhibitor (PAI). An established thrombus comprises aggregated platelets cohered by fibrin. The organism has a fibrinolyric system for maintaining normal physiological conditions. Endogenous plasminogen is activated to plasmin (fibrinolysin, that is a proteolytic enzyme decomposing fibrin) by means of a tissue plasminogen activator (t-PA). The platelets include the enzyme PAI-1 inhibiting the activation of plasminogen to plasmin, and thus also the decomposition of fibrin.
A general stimulation of the fibrinolytic system can cause serious hemostatic side effects (haemorrhages). A specific inhibition of PAI-1 induces an increased fibrinolysis in areas with many platelets, which is exactly the case in thrombi. As a result a thrombolytic effect is obtained.
Human PRP prepared by slight centrifugation as previously mentioned is used, but at a low temperature (4° C.). By incubation of PRP (1 ml in a plastic tube) during a slight shaking at 37° C. the PAI-1 activity is liberated, said PAI-1 activity being measured spectrophotometrically by means of a two-step procedure using commercial kits (Spectrolyse™/fibrin kit from BIOPOOL, Sweden).
The PAI-1 activity of the control PRP and PRP incubated with each of 6 compounds according to the invention and the reference substance sodium niroprusside (NNP) (50 μM of each for 60 minutes) appear from Table 6.

In data set [2] the test system is polymorph nuclear leukocytes (PMNs), c-GMP. As to the kind of experiment: Stimulation of c-GMP content in PMNs. The data set is classed as cell-based, human. The note with it: 37° C., 10 minutes. On the procedure: Compounds according to the invention were tested for their ability to increase the content of cyclic guanosine monophosphate (c-GMP), to inhibit the synthesis of the leukotriene B4 (LTB4), and to inhibit the chemotactical movement of polymorph nuclear leukocytes (PMN). The polymorph nuclear leukocytes play a vital part in the cellular part of the inflammation process. At diseases, such as asthma, the mucuos membrane of the respiratory passages is swollen as a result of an inflammation with a significant infiltration of polymorph nuclear leukocytes (PMN's) in particular. Particularly effective substances for the treatment of asthma are such which in addition to relaxing the musculature in the respiratory passages also have an anti-inflammatory effect on the cellular phase of the inflammatory process, that is inhibiting the leukocyte function.
Isolated human PMNs are incubated at 37° C. for 10 minutes, whereafter the content of cyclic guanosine monophosphate (c-GMP) is measured. Further, the synthesis of the LTB4 is determined after stimulation with Ca-ionophore (A23187) and the chemotaxis (controlled movement) towards FMLP (a substance attracting the polymorph nuclear leukocytes, PMNs) is determined.
Three compounds according to the invention and the reference substance SIN-1 were tested for their ability to stimulate the content of cyclic guanosine monophosphate (c-GMP).

Each structure is given as a SMILES string. Counter-ions that a name gives are not always drawn. Like-named read-outs stand apart in the source and are kept apart here.

With `Cc1c(Cl)cccc1-[n+]1noc([N-]C(=O)c2cccnc2)n1` [Example 54], the EC50 with pre-contracted trachea worked out at 600 nM. Further, the values for the Guanylate cyclase activity in data set [1] (0.01 μM) and in data set [1] (10 μm (so in the source)) were 8139 pmole c-GMP/mg prot. × 15 minutes and 18693 pmole c-GMP/mg prot. × 15 minutes, respectively.
With `[NH-]c1n[n+](-c2ccc(C(F)(F)F)cc2)no1` [Example 4], the LD50 came out at 81 mg/kg in the data set “LD50 test, intravenous” (female mice) and 89 mg/kg in the data set “LD50 test, intravenous” (male mice).
Regarding `COc1ccc(C(=O)[N-]c2n[n+](-c3cccc(Cl)c3C)no2)cc1` [Example 53], in the data set with pre-contracted trachea, the EC50 amounted to 700 nM.
With `CC(=O)Oc1ccccc1C(=O)[N-]c1n[n+](-c2cccc(Cl)c2C)no1` [Example 38], in the data set with male rats, the Clinical observations entry is “N.R”, the Hematological parameters entry is given as “N.R” and the “Side effects (in words)” value is “no side effects”. Also, the EC50 in the data set with pre-contracted trachea turned out to be 3200 nM. For the same compound, in data set [1] (0.01 μM), the Guanylate cyclase activity was 1024 pmole c-GMP/mg prot. × 15 minutes. For the same compound, the Guanylate cyclase activity in data set [1] (10 μm (so in the source)) was 82100 pmole c-GMP/mg prot. × 15 minutes. In the data set on blood platelets, the IC50 is 200 nM.
With `COc1ccc(CCNC(=O)[N-]c2n[n+](-c3cccc(Cl)c3C)no2)cc1OC` [Example 47a, 3-(3-chloro-2-methylphenyl)-1,2,3,4-oxatriazole-5-(N-3,4-dimethoxyphenylethylcarbamoyl)imine], the EC50 in the data set with pre-contracted trachea was determined as 5200 nM.
As to `Cc1cccc(C)c1-[n+]1noc([NH-])n1` [Example 12], the EC50 with pre-contracted trachea was 4900 nM. For the same compound, in the data set on PAI-1, the “% Inhibition of PAI-1 activity” value is 37% and the PAI-1 activity worked out at 2.04 U/10^8 platelets.
For `Cc1cc(Cl)ccc1-[n+]1noc([NH-])n1` [Example 13, 3-(4-chloro-2-methylphenyl)-1,2,3,4-oxatriazole-5-imine hydrochloride], the EC50 with pre-contracted trachea came to 1100 nM. The figures for the Guanylate cyclase activity in data set [1] (0.01 μM) and in data set [1] (10 μm (so in the source)) were 7642 pmole c-GMP/mg prot. × 15 minutes and 48126 pmole c-GMP/mg prot. × 15 minutes, respectively. Also, the IC50 in the data set with blood platelets was determined as 200 nM.
For the compound `Cc1c(Cl)cccc1-[n+]1noc([NH-])n1` [Example 29, 3-(3-chloro-2-methylphenyl)-1,2,3,4-oxatriazole-5-imine], the “c-GMP in PMNs” value in data set [2] (1 μM) is 209 fmole/10^6 cells; in data set [2] (10 μM), 859 fmole/10^6 cells; in data set [2] (100 μM) it was 1044 fmole/10^6 cells. In addition, the EC50 in the data set on pre-contracted trachea was found to be 800 nM. The figures for the Guanylate cyclase activity in data set [1] (0.01 μM) and in data set [1] (10 μm (so in the source)) were 4407 pmole c-GMP/mg prot. × 15 minutes and 61900 pmole c-GMP/mg prot. × 15 minutes, respectively. Further, the “% Inhibition of PAI-1 activity” value in the data set with PAI-1 was 39%. This compound also registered a PAI-1 activity in the data set on PAI-1 of 1.97 U/10^8 platelets.
